Laboratory results as given in US20150238507A1, “BENZODIAZEPINES FOR TREATING SMALL CELL LUNG CANCER” (GlaxoSmithKline LLC, priority 2012, published 2015).
Like-named read-outs stand apart in the source and are kept apart here.

Key:
[1] = test system: small cell lung cancer lines; assay: 6 day proliferation (cell growth) assay, panel of 38 small cell lung cancer lines; type: cell-based; conditions: 6 day proliferation assay; for IC50: 144 h
[2] = test system: NCI-H526 cell line xenograft; assay: SCLC subcutaneous mouse xenograft model, efficacy and pharmacodynamics; type: in vivo; conditions: 25 mg/kg QD

SMILES: CCNC(=O)C[C@@H]1N=C(c2ccc(Cl)cc2)c2cc(OC)ccc2-n2c(C)nnc21 [2-[(4S)-6-(4-chlorophenyl)-1-methyl-8-(methyloxy)-4H-[1,2,4]triazolo[4,3-a][1,4]benzodiazepin-4-yl]-N-ethylacetamide]
- IC50 ([1]; median of 38 small cell lung cancer lines, read-out: gIC50 (median over the panel)): 1460 nM
- IC50 ([1]; panel of 38 small cell lung cancer lines, read-out: gIC50 (range over the panel)): 109 to 29300 nM
- number of lines showing gIC50<10000 nM ([1]; of the 38 small cell lung cancer lines): 33
- reduction of tumour growth ([2]; NCI-H526 subcutaneous mouse xenograft): 70%
- p21 protein expression and caspase activation in tumour ([2]; NCI-H526 xenograft, antibody-based immunochemistry assay): induce p21 protein expression and caspase activation
